Source: ChEMBL document CHEMBL4382229, “Benzofuran derivatives and their anti-tubercular, anti-bacterial activities” (Eur J Med Chem, 2019)
≈ marks a conversion by molar mass, not a printed value.

Tests used:
Bacillus subtilis [1] = experiment: Potency index, ratio of streptomycin MIC to test compound MIC for Bacillus subtilis MTCC 1134; format: functional
Bacillus subtilis [2] = experiment: Antibacterial activity against Bacillus subtilis MTCC 1134 after 24 hrs by broth dilution method; format: functional; conditions: MTCC 1134, 24 h
Escherichia coli [3] = experiment: Antibacterial activity against Escherichia coli MTCC 1559 after 24 hrs by broth dilution method; format: functional; conditions: MTCC 1559, 24 h
Pseudomonas aeruginosa [4] = experiment: Antibacterial activity against Pseudomonas aeruginosa MTCC 1034 after 24 hrs by broth dilution method; format: functional; conditions: MTCC 1034, 24 h
Pseudomonas aeruginosa [5] = experiment: Potency index, ratio of streptomycin MIC to test compound MIC for Pseudomonas aeruginosa MTCC 1034; format: functional
Escherichia coli [6] = experiment: Potency index, ratio of streptomycin MIC to test compound MIC for Escherichia coli MTCC 1559; format: functional
Staphylococcus aureus [7] = experiment: Antibacterial activity against Staphylococcus aureus assessed as zone of inhibition at 50 ug/ml after 3 days by filter paper disc method; format: functional; conditions: 72 h, read-out: IZ
Pseudomonas aeruginosa [8] = experiment: Antibacterial activity against Pseudomonas aeruginosa assessed as zone of inhibition at 50 ug/ml after 3 days by filter paper disc method; format: functional; conditions: 72 h, read-out: IZ
Bacillus subtilis [9] = experiment: Antibacterial activity against Bacillus subtilis assessed as zone of inhibition at 50 ug/ml after 3 days by filter paper disc method; format: functional; conditions: 72 h, read-out: IZ
Escherichia coli [10] = experiment: Antibacterial activity against Escherichia coli assessed as zone of inhibition at 50 ug/ml after 3 days by filter paper disc method; format: functional; conditions: 72 h, read-out: IZ
Staphylococcus aureus [11] = experiment: Antibacterial activity against Staphylococcus aureus ATCC 29213 after 24 hrs by broth dilution method; format: functional
Escherichia coli [12] = experiment: Antibacterial activity against Escherichia coli ATCC 11229 after 24 hrs by broth dilution method; format: functional
Staphylococcus aureus [13] = experiment: Antibacterial activity against Staphylococcus aureus ATCC 6538 after 24 hrs by broth dilution method; format: functional
Bacillus spizizenii = experiment: Antibacterial activity against Bacillus subtilis ATCC 6633 after 24 hrs by broth dilution method; format: functional
Proteus vulgaris [14] = experiment: Antibacterial activity against Proteus vulgaris […] after 24 hrs by broth dilution method; format: functional
[15] = system: Mycobacterium tuberculosis; experiment: Antitubercular activity against Mycobacterium tuberculosis Erdman infected in BALB/c mouse assessed as reduction in bacterial load in spleen at 25 mg/kg, po administered once daily via gavage starting from 27 days post infection for 5 consecutive days per week for 4 weeks; format: functional
[16] = system: Mycobacterium tuberculosis; experiment: Antitubercular activity against Mycobacterium tuberculosis Erdman infected in BALB/c mouse assessed as reduction in bacterial load in lungs at 25 mg/kg, po administered once daily via gavage starting from 27 days post infection for 5 consecutive days per week for 4 weeks; format: functional
[17] = system: Mycobacterium tuberculosis; experiment: Antitubercular activity against Mycobacterium tuberculosis H37Rv infected in BALB/c mouse assessed as reduction in bacterial load in lungs at 10 mg/kg, po administered once daily via gavage for 5 consecutive days per week for 2 weeks; format: functional
Proteus vulgaris [18] = experiment: Antibacterial activity against Proteus vulgaris after 24 hrs; format: functional
Proteus vulgaris [19] = experiment: Potency index, ratio of norfloxacin MIC to test compound MIC for Proteus vulgaris; format: functional
[20] = system: Mycobacterium tuberculosis; experiment: Antitubercular activity against Mycobacterium tuberculosis H37Rv infected in BALB/c mouse assessed as reduction in bacterial load in lungs at 200 mg/kg, po administered once daily via gavage for 5 consecutive days per week for 2 weeks; format: functional
[21] = system: Mycobacterium tuberculosis; experiment: Antitubercular activity against Mycobacterium tuberculosis Erdman infected in BALB/c mouse assessed as reduction in bacterial load in lungs at 300 mg/kg, po administered once daily via gavage starting from 27 days post infection for 5 consecutive days per week for 4 weeks; format: functional
[22] = system: Mycobacterium tuberculosis; experiment: Antitubercular activity against Mycobacterium tuberculosis Erdman infected in BALB/c mouse assessed as reduction in bacterial load in spleen at 300 mg/kg, po administered once daily via gavage starting from 27 days post infection for 5 consecutive days per week for 4 weeks; format: functional
[23] = system: Mycobacterium tuberculosis; experiment: microbe, parasite or virus in culture; conditions: MC2 7000, 144 h
Description: Antimycobacterial activity against Mycobacterium tuberculosis MC2 7000 after 6 days by alamar blue assay

Pseudomonas aeruginosa [24] = experiment: Antibacterial activity against Pseudomonas aeruginosa MTCC 424 assessed as zone of inhibition at 25 ug/ml by agar well diffusion method; format: functional; conditions: read-out: IZ
Escherichia coli [25] = experiment: Antibacterial activity against Escherichia coli MTCC 443 assessed as zone of inhibition at 25 ug/ml by agar well diffusion method; format: functional; conditions: read-out: IZ
Streptococcus pyogenes = experiment: Antibacterial activity against Streptococcus pyogenes MTCC 442 assessed as zone of inhibition at 25 ug/ml by agar well diffusion method; format: functional; conditions: read-out: IZ
Staphylococcus aureus [26] = experiment: Antibacterial activity against Staphylococcus aureus MTCC 96 assessed as zone of inhibition at 25 ug/ml by agar well diffusion method; format: functional; conditions: read-out: IZ
Staphylococcus aureus [27] = experiment: Potency index, ratio of ciprofloxacin MIC to test compound MIC for Staphylococcus aureus; format: functional
Staphylococcus aureus [28] = experiment: Antibacterial activity against Staphylococcus aureus by broth dilution method; format: functional
Pseudomonas aeruginosa [29] = experiment: Antibacterial activity against Pseudomonas aeruginosa by broth dilution method; format: functional
Bacillus subtilis [30] = experiment: Potency index, ratio of ciprofloxacin MIC to test compound MIC for Bacillus subtilis; format: functional
Bacillus subtilis [31] = experiment: Antibacterial activity against Bacillus subtilis by broth dilution method; format: functional
Escherichia coli [32] = experiment: Antibacterial activity against Escherichia coli by broth dilution method; format: functional
Escherichia coli [33] = experiment: Potency index, ratio of ciprofloxacin MIC to test compound MIC for Escherichia coli; format: functional

Compound: Cc1ccc(-c2cc(-c3cc4ccccc4o3)nc(N)n2)s1
- Ratio (Bacillus subtilis [1]): >3
- MIC (Bacillus subtilis [2]): 4.32 to 6.32 µg/mL (≈ 14.1 to 20.6 µM)
- MIC (Escherichia coli [3]): 4.32 to 6.32 µg/mL (≈ 14.1 to 20.6 µM)
- MIC (Pseudomonas aeruginosa [4]): 4.32 to 6.32 µg/mL (≈ 14.1 to 20.6 µM)
- Ratio (Pseudomonas aeruginosa [5]): >3
- Ratio (Escherichia coli [6]): >3

Compound: O=C1/C(=C\c2cn(-c3ccccc3)nc2-c2cccs2)Oc2cc(Cl)ccc21
- zone of inhibition at 50 µg/mL (Staphylococcus aureus [7]): 13 to 33 mm
- zone of inhibition at 50 µg/mL (Pseudomonas aeruginosa [8]): 13 to 33 mm
- zone of inhibition at 50 µg/mL (Bacillus subtilis [9]): 13 to 33 mm
- zone of inhibition at 50 µg/mL (Escherichia coli [10]): 13 to 33 mm

Compound: GENTAMICIN
- MIC (Staphylococcus aureus [11]): 1.6 to 3.1 µg/mL
- MIC (Escherichia coli [12]): 1.62 to 3.12 µg/mL
- MIC (Staphylococcus aureus [13]): 1.62 to 3.12 µg/mL
- MIC (Bacillus spizizenii): 1.62 to 3.12 µg/mL
- MIC (Proteus vulgaris [14]): 1.62 to 3.12 µg/mL

Compound: NNC(=O)c1ccncc1 [ISONIAZID]
- Activity [15]: 2.5 log10CFU
- Activity [16]: 1.1 log10CFU
- Activity [17]: 6.7 log10CFU

Compound: O=C1Nc2c(cccc2[N+](=O)[O-])/C1=N/NC(=O)c1cc2ccccc2o1
- MIC (Proteus vulgaris [18]): 31.2 µg/mL (≈ 89.2 µM)
- Ratio (Proteus vulgaris [19]): 2

Compound: CNC(=O)c1c(-c2ccc(O)cc2)oc2ccc(O)c(CN3CCCCC3)c12
- Activity [20]: 6.8 log10CFU
- Activity [21]: 0.9 log10CFU
- Activity [22]: 2.2 log10CFU
- MIC [23]: 0.09 µM (≈ 0.0342 µg/mL)

Compound: COc1cc(OC)c(-c2cc3cc(C(=O)NN)cc(OC)c3o2)c(OC)c1
- zone of inhibition at 25 µg/mL (Pseudomonas aeruginosa [24]): 21 to 27 mm
- zone of inhibition at 25 µg/mL (Escherichia coli [25]): 21 to 27 mm
- zone of inhibition at 25 µg/mL (Streptococcus pyogenes): 21 to 27 mm
- zone of inhibition at 25 µg/mL (Staphylococcus aureus [26]): 21 to 27 mm

Compound: Cc1ccc2occ(-c3cc4ccccc4oc3=O)c2c1
- Ratio (Staphylococcus aureus [27]): >=5
- MIC (Staphylococcus aureus [28]): 0.2 µg/mL (≈ 0.724 µM)
- MIC (Pseudomonas aeruginosa [29]): 6.25 to 100 µg/mL (≈ 22.6 to 362 µM)
- Ratio (Bacillus subtilis [30]): >=5
- MIC (Bacillus subtilis [31]): 0.4 µg/mL (≈ 1.45 µM)
- MIC (Escherichia coli [32]): 0.2 µg/mL (≈ 0.724 µM)
- Ratio (Escherichia coli [33]): >=5
